# Data from patent US7510825B2, “Kits and methods for detection of apoptotic cells” (NST NeuroSurvival Technologies Ltd, priority 2000, dated 2009).
# Assays:
# [1] = test system: L5178-S murine lymphoma tumors; experiment: Quantification of DDC uptake into lymphoma tumor after radiotherapy; format: in vivo, mice; details: DDC for 2 hours
# Procedure: Extraction of DDC uptake compound from cytosolic extracts of organs or tissues for quantitative measurement of DDC uptake: • a. Excising the relevant organ from animals, that were previously injected with DDC. • b. Weighting the organs and homogenize using tissue homogenizer in a cold Buffer-Hepes • c. Following total homogenization, centrifuging the sample at 13,800 rpm for 20 min at 4° C. and transferring the supernatant to a new test tube. • d. Repeating step c and taking the supernatant for quantitative fluorescence evaluation. Alternatively, the supernatant can be stored at −80° C. until use. • e. Placing a sample of 100 ul of organ suspension into each of three wells of a black to microtiter plate. • f. Measuring the fluorescence intensity of DDC (excitation 360 nm, emission 535 nm) using a fluorescence plate reader.
# Creating a calibration curve for the fluorescence plate reader using serial dilution of the DDC compound: 1:10, 1:20, 1:40, 1:80, 1:160, 1:320, 1:640, 1:1280.
# Murine lymphoma model was established using DBA/2 mice injected subcutaneously with L5178-S murine lymphoma cells. Tumor treatment, by multiply fractionated X-irradiation (3 fractions of 6 Gy/day), started when the tumor reached in diameter 6-8 mm (approximately ten days after tumor implantation). At different time points (24, 48 or 72 hours) following irradiation, mice were injected with DDC for 2 hours. Tumors were harvested from control and radiation-treated animals and processed for quantitative analysis of DDC uptake into the tumor.
# [2] = test system: neuronal cells of the injured brain area; experiment: Detection by DDC of apoptosis following traumatic brain injury (TBI); format: in vivo, mice; details: DDC 24 hr after traumatic injury, brain excised after 2 hr
# Procedure: A. Administration of DDC in-vivo: Injection of 200 μl of DDC intravenously. Following 1-2 hours, animal is sacrificed, and the desired organ is placed in a test tube or on a small plate, suitable for liquid nitrogen freezing. The plate is then covered with an aluminum foil, and transferred to liquid nitrogen. Following 5-30 minutes the specimen is being frozen to −80° C. and kept at −80° C. for at least 16 hr. B. Analysis of the Specimen: • a. Whole organ imaging Ex-vivo whole organ fluorescence imaging may be carried out on freshly excised specimen, that can be analyzed under a stereomicroscope (such as Leica MZ FL III, Leica Switzerland). DDC may be visualized using 360cx and >420cm nm filter set. Emitted fluorescence can be imaged using appropriate camera and software, such as a Leica DC 300F Distal camera and images can be processed and analyzed by Leica QWin Lite software. • b. Histological analysis, from the frozen organ or tissue, 4 μm cryosections are prepared on slides. Analysis of the tissue sections can be performed using a fluorescence microscope with a UV filter characterized by excitation at 360-370 nm (band pass) and emission at 420 nm (barrier filter) In case that staining of the examined tissue is desired, the following procedures can be applied:
# TBI model was performed on Balb/C, 8-9 weeks old, according to the protocol detailed in Yun Chen et al., 1996. […]
smiles,measurement,setting,value
CN(C)c1cccc2c(S(=O)(=O)NC(CSSCC(NS(=O)(=O)c3cccc4c(N(C)C)cccc34)C(=O)O)C(=O)O)cccc12 (stereo not shown) [DDC],"DDC uptake into the tumor, times higher over the control mean values",[1]; 24 hours following X-irradiation (3 fractions of 6 Gy/day),3.68 times
same,"DDC uptake into the tumor, times higher over the control mean values",[1]; 48 hours following X-irradiation (3 fractions of 6 Gy/day),4.69 times
same,"DDC uptake into the tumor, times higher over the control mean values",[1]; 72 hours following X-irradiation (3 fractions of 6 Gy/day),6.74 times
same,correlation of DDC staining with H&E staining,[2],correlated with H&E staining
